According to BindingDB's records for doi:10.1002/cbic.201000339 (University of York, 2010):

Target: T1, Alpha-fucosidase-like protein (Bacteroides thetaiotaomicron (strain ATCC 29148 / DSM 2079 / JCM 5827 / CCUG 10774 / NCTC 10582 / VPI-5482 / E50), UniProt Q8ABG8)
T1 sequence (Q8ABG8 whole entry): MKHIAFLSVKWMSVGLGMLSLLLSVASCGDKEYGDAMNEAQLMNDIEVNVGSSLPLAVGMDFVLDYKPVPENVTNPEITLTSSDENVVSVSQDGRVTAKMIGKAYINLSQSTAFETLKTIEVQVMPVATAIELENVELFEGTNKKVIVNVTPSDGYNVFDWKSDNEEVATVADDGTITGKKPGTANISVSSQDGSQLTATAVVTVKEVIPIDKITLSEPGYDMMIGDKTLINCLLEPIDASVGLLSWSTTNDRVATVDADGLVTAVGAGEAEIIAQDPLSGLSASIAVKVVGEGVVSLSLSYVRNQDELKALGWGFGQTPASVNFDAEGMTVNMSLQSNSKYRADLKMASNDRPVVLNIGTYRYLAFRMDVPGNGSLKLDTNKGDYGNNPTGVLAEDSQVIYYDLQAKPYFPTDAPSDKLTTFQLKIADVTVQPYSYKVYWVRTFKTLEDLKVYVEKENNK
Assay: Enzyme Assay
Settings: 37 °C
Description: The kinetic studies involving a spectrophotometric product were conducted by monitoring the change in UV/visible absorbance with a Cintra 10 spectrophotometer.

| SMILES | Kd (pH 6) | Kd (pH 6.5) | Kd (pH 8.5) |
| --- | --- | --- | --- |
| C[C@@H]1NC[C@@H](O)[C@H](O)[C@@H]1O | 14.8 nM | 27 nM | 372 nM |
| CC1NC(CNC(=O)c2cccc3c2C(=O)c2ccccc2-3)C(O)C(O)C1O (stereo not given) [Fucosidase Inhibitor, 4] | 46.6 nM |  | 157 nM |
